In PubChem BioAssay (NCI):
Where “and” joins values, the source holds several entries; their conditions need not be identical. Identical values can stand only once.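 Tested at 5 concentrations; 48 h exposure; 96-well plates; endpoints linearly interpolated, else capped at highest concentration. GI50 = concentration required for 50% inhibition of growth. TGI is the concentration that stops growth completely.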

Columns and labels:
Experiment in all cases: growth of human tumour cells (NCI), 48 h
MDA-MB-435 = tested on: MDA-MB-435
BT-549 breast = tested on: BT-549 breast
HL-60(TB) leukemia = tested on: HL-60(TB) leukemia
SNB-19 CNS = tested on: SNB-19 CNS
OVCAR-8 ovarian = tested on: OVCAR-8 ovarian
SNB-75 CNS = tested on: SNB-75 CNS
LOX IMVI melanoma = tested on: LOX IMVI melanoma
COLO 205 colon = tested on: COLO 205 colon
SF-539 CNS = tested on: SF-539 CNS
HT29 colon = tested on: HT29 colon

SMILES | GI50 (MDA-MB-435) | TGI (MDA-MB-435) | GI50 (BT-549 breast) | TGI (BT-549 breast) | GI50 (HL-60(TB) leukemia) | TGI (HL-60(TB) leukemia) | GI50 (SNB-19 CNS) | TGI (SNB-19 CNS) | GI50 (OVCAR-8 ovarian) | TGI (OVCAR-8 ovarian) | GI50 (SNB-75 CNS) | TGI (SNB-75 CNS) | GI50 (LOX IMVI melanoma) | TGI (LOX IMVI melanoma) | GI50 (COLO 205 colon) | TGI (COLO 205 colon) | GI50 (SF-539 CNS) | TGI (SF-539 CNS) | GI50 (HT29 colon) | TGI (HT29 colon)
C#Cc1cccc(Nc2ncnc3ccc(-c4cnc(N)nc4)cc23)c1 | 3.58 µM | 15.6 µM | 2.07 µM | 9.37 µM | 2.59 µM | 11 µM | 3.15 µM | 21.5 µM | 3.69 µM | 33.1 µM | 0.643 µM | 3.96 µM | 2.78 µM | 11.3 µM | 2.99 µM | 13.8 µM | 2.81 µM | 11.9 µM | 2.36 µM | 14.6 µM
CSc1nc(SC)c2c(C)c(Br)[nH]c2n1 |  | > 100 µM |  | > 100 µM |  | > 100 µM |  | > 100 µM |  | > 100 µM |  | > 100 µM |  | > 100 µM |  | > 100 µM |  | > 100 µM |  | > 100 µM
O=C1NC(c2cccc3ccccc23)Nc2ccccc21 (stereo not given) |  | 0.0068 µM |  | > 100 µM | 0.00675 µM | 0.0391 µM and 0.0342 µM | 0.0554 µM | > 100 µM | 0.0783 µM | 12 µM |  | 35.9 µM | 0.0389 µM | > 96.7 µM | 0.027 µM | 0.0954 µM | 0.0105 µM | 0.0329 µM and 0.165 µM | 0.0256 µM and 0.0306 µM | 1.14 µM and 0.203 µM
CN(C)C[C@@H]1CCn2cc(c3ccccc32)C2=C(C(=O)NC2=O)c2cn(c3ccccc23)CCO1 | 1.46 µM | > 10 µM | 1.41 µM | 9.57 µM | 1.6 µM | 3.75 µM | 4.49 µM | > 10 µM | 0.598 µM | 8.33 µM | 1.4 µM | 5.96 µM | 1.63 µM | 3.44 µM | 1.03 µM | > 10 µM | 1.08 µM | 2.45 µM | 3.32 µM | > 10 µM
CC(C)c1ccc(C(O)(C(=O)O)c2ccc(C(C)C)cc2)cc1 |  | > 100 µM |  | > 100 µM |  | 99.4 µM |  | > 100 µM |  | > 100 µM |  | > 100 µM |  | > 100 µM |  | > 100 µM |  | > 100 µM |  | > 100 µM
COc1ccc2c(c1)C(=O)/C(=C/c1cccc(OCC(=O)c3ccc([N+](=O)[O-])cc3)c1)CO2 | 2.32 µM | 7.11 µM | 1.91 µM | 4.85 µM | 2.34 µM | 12.8 µM | 12.4 µM | 25.4 µM | 2.85 µM | 9.66 µM | 1.83 µM | 8.09 µM | 1.47 µM | 2.88 µM | 2.74 µM | 6.33 µM | 2.33 µM | 6.12 µM | 1.93 µM | 4.6 µM
CC(=O)OCC1OC([S-])C(OC(C)=O)C(OC(C)=O)C1OC(C)=O.[Au+].c1ccc(CN2[CH-]N(Cc3ccccc3)C(c3ccccc3)=C2c2ccccc2)cc1 | 2.94 µM and 0.86 µM | 10.4 µM and 3.36 µM | 2.03 µM and 0.375 µM | 4.32 µM and 2.69 µM | 2.57 µM and 0.573 µM | 7.57 µM and 2.35 µM | 1.7 µM and 0.3 µM | 3.18 µM and 1.18 µM | 3.17 µM and 0.479 µM | 11.6 µM and 4.44 µM | 1.83 µM and 0.412 µM | 7.21 µM and 4.4 µM | 1.65 µM and 0.563 µM | 3.1 µM and 1.32 µM | 3.59 µM and 0.881 µM | 14.3 µM and 2.27 µM | 2.96 µM and 0.855 µM | 10.4 µM and 3.81 µM | 3.38 µM and 1.02 µM | 12.6 µM and 4.47 µM
C=C1C(=O)O[C@H]2C3OC3(C)CC/C=C(/C(=O)OC)[C@@H](OC(C)=O)[C@H](OC(=O)C3(C)OC3C)[C@H]12 (stereo not given in full) |  | 3.95 µM and 4.99 µM |  | 2.27 µM | 154 nM and 0.285 µg/mL | 477 nM and 655 nM and 0.679 µg/mL | 23.1 µg/mL | > 7.5 µM and 53.5 µg/mL | 2.13 µM and 699 nM and 0.351 µg/mL | 2.98 µM and 3.01 µg/mL | 5.54 µM and 11.2 µM and 2.27 µg/mL | 21.8 µM and 4.68 µg/mL | 1.36 µM and 1.24 µM | 2.74 µM and 2.7 µM | 506 nM and 487 nM and 0.263 µg/mL | 1.81 µM and 1.86 µM and 0.495 µg/mL | 2.88 µM and 1.98 µM and 3.21 µg/mL | 7.5 µM and 6.28 µM and 7.06 µg/mL | 1.29 µM and 1.06 µM and 1.32 µg/mL | 2.55 µM and 2.3 µM and 4.03 µg/mL
CCCCCCCCCCCCSC1=CC(=O)C=CC1=O | 15.6 µM | > 50 µM | 1.34 µM | 4.57 µM | 0.353 µM | 2.43 µM | 1.69 µM | > 28.6 µM | 1.79 µM | 32.1 µM | 1.14 µM | 6.38 µM | 1.25 µM | 4.3 µM | 20.9 µM | > 36.2 µM | 1.23 µM | 3.5 µM | 27.1 µM | > 50 µM
CC(C)c1ccc(C(c2c(O)c3ccccc3oc2=O)c2c(O)c3ccccc3oc2=O)cc1 |  | 39.3 µM |  | 39.9 µM |  | 26.3 µM |  | 49.9 µM |  | 42.5 µM |  | 75.8 µM |  | 33 µM |  | 34.2 µM |  | 39.4 µM |  | 40.2 µM
